Results on one compound are retold here after patent US5627161A (Memorial Hospital for Cancer and Allied Diseases, priority 1993, dated 1997).

The test concerns PRPP levels of isolated splenocytes. Description: PRPP levels of isolated splenocytes incubated in vitro with UDPG or G-6-P. The note with it: for PRPP levels: soluble fraction of homogenates. In kind it is cell-based, mouse. As for the experimental part:
Isolation of splenocytes and hepatic cells: The organs were gently teased apart with forceps over a fine tea strainer into PBS or minimum essential culture medium (MEM) containing 0.1M potassium phosphate buffer pH 7.4 with and without added effectors. […] The supernatant solutions were assayed for PRPP.
The vials were shaken vigorously and their radioactivity determined.

In the case of `O=P(O)(O)OC[C@H]1OC(O)[C@H](O)[C@@H](O)[C@@H]1O` (some centres unmarked) [G-6-P, Glucose-6-phosphate], the PRPP levels turned out to be 969 pmoles/mg protein (1.1 mM in MEM), 1418 pmoles/mg protein (5.5 mM in MEM), 1510 pmoles/mg protein (11 mM in MEM) and 1998 pmoles/mg protein (22 mM in MEM). Further, the “effect on intracellular PRPP level of splenocytes as a function of concentration” value (isolated splenocytes, in words) is reported as “not evident below a concentration of 5.5 mM”.
